{"source": "patent US7129258B2", "about": "“Substituted benzoxazoles as estrogenic agents” (priority 2001, dated 2006)", "key": {"[1]": {"system": "ovariectomized Sprague-Dawley rats (proximal tibia)", "test": "Bone mineral density in the ovariectomized rat", "assay_type": "in vivo", "conditions": "5 weeks"}, "HLA-B27 rats": {"system": "HLA-B27 rats", "test": "HLA rat test procedure for inflammatory bowel disease (stool score 3 = diarrhea, 2 = soft stool, 1 = normal stool; colon histology)", "assay_type": "in vivo"}, "[2]": {"system": "Lewis rats, Freund's Adjuvant-Complete induced arthritis", "test": "Lewis rat adjuvant-induced arthritis, treatment test procedure", "assay_type": "in vivo", "conditions": "Treatment protocol, s.c. daily, begun Day 8 after adjuvant injection"}, "[3]": {"system": "casein kinase II mRNA in mammary fat pad", "test": "Mammary end bud test procedure (rat mammotrophic assay)", "assay_type": "in vivo", "experimental": "Evaluation in the Mammary End Bud Test Procedure\nEstrogens are required for full ductal elongation and branching of the mammary ducts, and the subsequent development of lobulo-alveolar end buds under the influence of progesterone. In this test procedure, the mammotrophic activity of selected compounds of the invention was evaluated according to the following standard pharmacological test procedure. Twenty-eight day old Sprague-Dawley rats (Taconic Farms) were ovariectomized and rested for nine days. Animals were housed under a 12-hour light/dark cycle, fed a casein-based Purina Laboratory Rodent Diet 5K96 (Purina, Richmond, Ind.) and allowed free access to water. […] The following results were obtained for representative compounds of the invention (Table (8))."}, "[4]": {"system": "Sexually immature 129 SvE mice (uterine weight)", "test": "Mouse uterotrophic test procedure (Procedure 2)", "assay_type": "in vivo", "conditions": "50 mg/kg s.c., days 22-25"}, "[5]": {"system": "Lewis rats, Freund's Adjuvant-Complete induced arthritis", "test": "Lewis rat adjuvant-induced arthritis, inhibition test procedure", "assay_type": "in vivo", "conditions": "Inhibition protocol, s.c. daily from Day 1"}, "[6]": {"system": "human endometrial tissue implanted into ovariectomized athymic nude mice", "test": "Endometriosis test procedure", "assay_type": "in vivo, mouse", "conditions": "10 mg/kg oral daily", "experimental": "Evaluation in an Endometriosis Standard Pharmacologic Test Procedure This procedure is slightly modified from a published method [Bruner-Tran. et al., Journal of Clinical Investigation 99: 2851–2857. (1997)]. […] Lesions are allowed to establish for at least 10 days, then oral daily dosing begins and continues for at least 15 days. It should be noted that all mice have visible lesions at the start of dosing. At necropsy the number of mice with lesions is determined as well as the lesions per mouse."}, "[7]": {"system": "Sexually immature Sprague-Dawley rats (uterine weight)", "test": "Rat uterotrophic test procedure (Procedure 1)", "assay_type": "in vivo", "conditions": "0.06 μg/rat s.c., days 19-21, alone"}, "morphine-addicted rats": {"system": "morphine-addicted rats", "test": "Rat hot flush test procedure (tail skin temperature after naloxone)", "assay_type": "in vivo", "conditions": "0.3 mg/kg", "description": "Rat Hot Flush Test Procedure\nThe effect of test compounds on hot flushes can be evaluated in a standard pharmacological test procedure which measures the ability of a test compound to blunt the increase in tail skin temperature which occurs as morphine-addicted rats are acutely withdrawn from the drug using naloxone [Merchenthaler, et al., Maturitas 30: 307–16 (1998)]. It can also be used to detect estrogen receptor antagonist activity by co-dosing test compound with the reference estrogen. The following data were obtained from representative compounds of the invention (Table (7))"}, "[8]": {"conditions": "Study C colon histology, oral 7 weeks, 10 mg/kg days 1–18 then 20 mg/kg, mean ± SD"}, "[9]": {"conditions": "Study B colon histology, oral 4 weeks, 10 mg/kg days 1–14 then 20 mg/kg, mean ± SD"}, "[10]": {"conditions": "Study C colon histology, oral 7 weeks, 10 mg/kg days 1–24 then 20 mg/kg, mean ± SD"}}, "note": "Several values for one entry are separate records, joined by “and”; a condition that tells them apart may be missing. Equal values may be shown once. Marks after values point to notes of the source that are not given here.", "data": [{"smiles": "Oc1cc(Br)c2oc(-c3ccc(O)c(F)c3)nc2c1", "note": "[Example 21, 7-Bromo-2-(3-fluoro-4-hydroxyphenyl)-1,3-benzoxazol-5-ol]", "values": [{"measurement": "Total Bone Mineral Density (mean ± SEM)", "setting": "[1]; 10 mg/kg s.c.", "value": "501.40 ± 11.97", "unit": "mg/mL"}, {"measurement": "Trabecular Bone Mineral Density (mean ± SEM)", "setting": "[1]; 10 mg/kg s.c.", "value": "312.34 ± 19.73", "unit": "mg/mL"}, {"measurement": "Fibrosis (0–2)", "setting": "HLA-B27 rats; [8]", "value": "0.56 ± 0.32"}, {"measurement": "Lesion depth (0–2)", "setting": "HLA-B27 rats; [8]", "value": "0.75 ± 0.50"}, {"measurement": "Ulceration (0–2)", "setting": "HLA-B27 rats; Study C colon histology, oral 7 weeks, 10 mg/kg then 20 mg/kg, mean ± SD", "value": "0.81 ± 0.47"}, {"measurement": "scores on all disease parameters vs vehicle-treated rats (in words)", "setting": "HLA-B27 rats; Study C, oral, 10 mg/kg then 20 mg/kg", "value": "not statistically significant, were lower"}]}, {"smiles": "C=Cc1cc(O)cc2nc(-c3ccc(O)cc3F)oc12", "note": "[Example 25, 2-(2-Fluoro-4-hydroxyphenyl)-7-vinyl-1,3-benzoxazol-5-ol]", "values": [{"measurement": "Fibrosis (0–2)", "setting": "HLA-B27 rats; [9]", "value": "0.31 ± .13"}, {"measurement": "Inflammation (0–3)", "setting": "HLA-B27 rats; [9]", "value": "1.50 ± 0.35"}, {"measurement": "Lesion depth (0–2)", "setting": "HLA-B27 rats; [9]", "value": "0.44 ± 0.24"}, {"measurement": "Ulceration (0–2)", "setting": "HLA-B27 rats; [9]", "value": "0.44 ± 0.24"}]}, {"smiles": "C=Cc1cc(O)cc2nc(-c3ccc(O)cc3)oc12", "note": "[Example 27, 2-(4-Hydroxyphenyl)-7-vinyl-1,3-benzoxazol-5-ol]", "values": [{"measurement": "Joint inflammation score (maximal score per day 12)", "setting": "[2]; Day 8", "value": 5.00}, {"measurement": "Joint inflammation score (maximal score per day 12)", "setting": "[2]; Day 15", "value": 2.00}, {"measurement": "Joint inflammation score (maximal score per day 12)", "setting": "[2]; Day 16", "value": 2.00}, {"measurement": "Joint inflammation score (maximal score per day 12)", "setting": "[2]; Day 17", "value": 1.50}]}, {"smiles": "C[C@]12CC[C@@H]3c4ccc(O)cc4CC[C@H]3[C@@H]1CC[C@@H]2O", "note": "[17β-estradiol]", "values": [{"measurement": "Casein kinase II mRNA/18 S rRNA (mean ± SEM)", "setting": "[3]; 0.1 mg/kg s.c. + Progesterone (30 mg/kg)", "value": "39.0 ± 5.36"}, {"measurement": "Total Bone Mineral Density (mean ± SEM)", "setting": "[1]; 2 μg/rat s.c.", "value": "639.49 ± 14.47", "unit": "mg/mL"}, {"measurement": "Trabecular Bone Mineral Density (mean ± SEM)", "setting": "[1]; 2 μg/rat s.c.", "value": "453.28 ± 24.93", "unit": "mg/mL"}, {"measurement": "mean uterine weight ± SEM", "setting": "[4]", "value": "41.9 ± 2.9 mg and 40.0 ± 2.0 mg and 35.6 ± 4.4 mg and 40.5 ± 5.84 mg and 42.9 ± 4.8 mg and 41.7 ± 3.6 mg"}]}, {"smiles": "C=Cc1cc(O)cc2nc(-c3ccc(O)c(F)c3)oc12", "note": "[Example 24, 2-(3-Fluoro-4-hydroxyphenyl)-7-vinyl-1,3-benzoxazol-5-ol]", "values": [{"measurement": "Joint inflammation score (maximal score per day 12)", "setting": "[5]; Day 1", "value": 0.00}, {"measurement": "Joint inflammation score (maximal score per day 12)", "setting": "[5]; Day 2", "value": 1.00}, {"measurement": "Joint inflammation score (maximal score per day 12)", "setting": "[5]; Day 3", "value": 4.50}, {"measurement": "Joint inflammation score (maximal score per day 12)", "setting": "[5]; Day 15", "value": 3.00}, {"measurement": "Joint inflammation score (maximal score per day 12)", "setting": "[5]; Day 17", "value": 1.50}, {"measurement": "Casein kinase II mRNA/18 S rRNA (mean ± SEM)", "setting": "[3]; 20 mg/kg s.c. + Progesterone (30 mg/kg)", "value": "3.98 ± 0.79"}, {"measurement": "lesions at necropsy compared with mice dosed with vehicle", "setting": "[6]; evaluated three times", "value": "fewer lesions"}, {"measurement": "lesions found per animal (mice with lesions)", "setting": "[6]; Study 1", "value": "one"}, {"measurement": "mice with lesion regression", "setting": "[6]; Study 1", "value": "four of six"}, {"measurement": "mice with any lesions at necropsy", "setting": "[6]; Study 1, all mice had lesions at start of dosing", "value": "two of six"}, {"measurement": "Joint inflammation score (maximal score per day 12)", "setting": "[2]; Day 4", "value": 9.50}, {"measurement": "Joint inflammation score (maximal score per day 12)", "setting": "[2]; Day 5", "value": 8.00}, {"measurement": "Joint inflammation score (maximal score per day 12)", "setting": "[2]; Day 6", "value": 7.00}, {"measurement": "Joint inflammation score (maximal score per day 12)", "setting": "[2]; Day 9", "value": 3.50}, {"measurement": "Joint inflammation score (maximal score per day 12)", "setting": "[2]; Day 17", "value": 2.00}, {"measurement": "Stool quality (in words)", "setting": "HLA-B27 rats; Study A, 50 mg/kg s.c. once per day", "value": "improved"}, {"measurement": "Fibrosis (0–2)", "setting": "HLA-B27 rats; [10]", "value": "0*"}, {"measurement": "Inflammation (0–3)", "setting": "HLA-B27 rats; [10]", "value": "0.69 ± 0.24"}, {"measurement": "Lesion depth (0–2)", "setting": "HLA-B27 rats; [10]", "value": "0*"}, {"measurement": "Total score", "setting": "HLA-B27 rats; [10]", "value": "0.69 ± 0.24"}, {"measurement": "Ulceration (0–2)", "setting": "HLA-B27 rats; [10]", "value": "0*"}, {"measurement": "total disease score, intestinal histology (in words)", "setting": "HLA-B27 rats; Study C, oral, 10 mg/kg days 1–24 then 20 mg/kg", "value": "significantly reduced"}, {"measurement": "measurements of tissue injury, colon histology (in words)", "setting": "HLA-B27 rats; composite of two subcutaneous dosing studies, including Study A", "value": "effective in reducing several measurements of tissue injury"}]}, {"smiles": "C#C[C@]1(O)CC[C@H]2[C@@H]3CCc4cc(O)ccc4[C@H]3CC[C@@]21C", "note": "[17α-ethinyl, 17β-estradiol, 17α-ethinyl-17β-estradiol]", "values": [{"measurement": "mean uterine weight ± SEM", "setting": "[7]", "value": "104.7 ± 5.4 mg and 85.5 ± 3.1 mg"}, {"measurement": "Temperature change 15 minutes after naloxone injection (mean ± SEM)", "setting": "morphine-addicted rats", "value": "2.12 ± 1.14"}]}, {"smiles": "C=C(Br)c1cc(O)cc2nc(-c3ccc(O)cc3F)oc12", "note": "[Example 32, 7-(1-Bromovinyl)-2-(2-fluoro-4-hydroxyphenyl)-1,3-benzoxazol-5-ol]", "values": [{"measurement": "Joint inflammation score (maximal score per day 12)", "setting": "[2]; Day 1", "value": 11.33}, {"measurement": "Joint inflammation score (maximal score per day 12)", "setting": "[2]; Day 2", "value": 10.83}, {"measurement": "Joint inflammation score (maximal score per day 12)", "setting": "[2]; Day 3", "value": 9.33}, {"measurement": "Joint inflammation score (maximal score per day 12)", "setting": "[2]; Day 4", "value": 8.00}, {"measurement": "Joint inflammation score (maximal score per day 12)", "setting": "[2]; Day 5", "value": 5.83}, {"measurement": "Joint inflammation score (maximal score per day 12)", "setting": "[2]; Day 6", "value": 3.33}, {"measurement": "Joint inflammation score (maximal score per day 12)", "setting": "[2]; Day 7", "value": 3.00}, {"measurement": "Joint inflammation score (maximal score per day 12)", "setting": "[2]; Day 8", "value": 2.50}, {"measurement": "Joint inflammation score (maximal score per day 12)", "setting": "[2]; Day 9", "value": 2.50}, {"measurement": "Joint inflammation score (maximal score per day 12)", "setting": "[2]; Day 10", "value": 2.50}, {"measurement": "Joint inflammation score (maximal score per day 12)", "setting": "[2]; Day 11", "value": 2.50}, {"measurement": "Joint inflammation score (maximal score per day 12)", "setting": "[2]; Day 12", "value": 2.50}, {"measurement": "Joint inflammation score (maximal score per day 12)", "setting": "[2]; Day 13", "value": 2.50}, {"measurement": "Joint inflammation score (maximal score per day 12)", "setting": "[2]; Day 14", "value": 2.50}, {"measurement": "Joint inflammation score (maximal score per day 12)", "setting": "[2]; Day 15", "value": 2.00}, {"measurement": "Joint inflammation score (maximal score per day 12)", "setting": "[2]; Day 16", "value": 1.33}, {"measurement": "Joint inflammation score (maximal score per day 12)", "setting": "[2]; Day 17", "value": 1.00}]}]}
